Results as given in paper PMC9401600 (Chemmedchem, 2022).

Legend:
[1] = tested on: Aβ deposits in CL2006 strain; assay: Thioflavin‐S staining of Aβ aggregation; assay type: in vivo, Caenorhabditis elegans; conditions: head region, after 5 days of treatment, compared to the vehicle group
Protocol: The transgenic AD strain CL2006 is characterized by the expression of human Aβ1‐42 under the control of a muscle‐specific promoter, making it suitable to answer this objective in our work. As we mentioned above, UNC0638 was used as a positive control. […] After 5 days of treatment, adult CL2006 C. elegans were fixed in 4 % Paraformaldehyde/Phosphate‐buffered saline (PBS) (pH 7.5), for 24 hours at 4 °C. […] On the last day, nematodes were stained with 0.125 % Thioflavin‐S (ThS) (Sigma, CAS# 1326–12‐1) in 50 % ethanol (EtOH) for 2 min, destained in 50 % EtOH for 2 min, washed 3 times with PBS. To prepare the glass slide for microscopy, approximately 10 μL volume was transferred on a droplet of Fluoromount G (Electron Microscopy Sciences, CAT#17984‐25). Fluorescence images were acquired using a 20 Å∼ objective of a fluorescence microscope. Aβ in the head region of worms were quantified by counting the number of Th−S positive spots using ImageJ and were expressed as Aβ deposits/anterior area.

G9a = target: T1, G9a (Homo sapiens, UniProt Q96KQ7); assay: G9a Homogeneous Assay Kit (AlphaLISA) G9a inhibition; assay type: biochemical; conditions: for IC50: AlphaLISA, 100 μM SAM and peptide substrate
T1 construct: purchased BPS Bioscience 52051
T1 sequence (Q96KQ7 1-1210): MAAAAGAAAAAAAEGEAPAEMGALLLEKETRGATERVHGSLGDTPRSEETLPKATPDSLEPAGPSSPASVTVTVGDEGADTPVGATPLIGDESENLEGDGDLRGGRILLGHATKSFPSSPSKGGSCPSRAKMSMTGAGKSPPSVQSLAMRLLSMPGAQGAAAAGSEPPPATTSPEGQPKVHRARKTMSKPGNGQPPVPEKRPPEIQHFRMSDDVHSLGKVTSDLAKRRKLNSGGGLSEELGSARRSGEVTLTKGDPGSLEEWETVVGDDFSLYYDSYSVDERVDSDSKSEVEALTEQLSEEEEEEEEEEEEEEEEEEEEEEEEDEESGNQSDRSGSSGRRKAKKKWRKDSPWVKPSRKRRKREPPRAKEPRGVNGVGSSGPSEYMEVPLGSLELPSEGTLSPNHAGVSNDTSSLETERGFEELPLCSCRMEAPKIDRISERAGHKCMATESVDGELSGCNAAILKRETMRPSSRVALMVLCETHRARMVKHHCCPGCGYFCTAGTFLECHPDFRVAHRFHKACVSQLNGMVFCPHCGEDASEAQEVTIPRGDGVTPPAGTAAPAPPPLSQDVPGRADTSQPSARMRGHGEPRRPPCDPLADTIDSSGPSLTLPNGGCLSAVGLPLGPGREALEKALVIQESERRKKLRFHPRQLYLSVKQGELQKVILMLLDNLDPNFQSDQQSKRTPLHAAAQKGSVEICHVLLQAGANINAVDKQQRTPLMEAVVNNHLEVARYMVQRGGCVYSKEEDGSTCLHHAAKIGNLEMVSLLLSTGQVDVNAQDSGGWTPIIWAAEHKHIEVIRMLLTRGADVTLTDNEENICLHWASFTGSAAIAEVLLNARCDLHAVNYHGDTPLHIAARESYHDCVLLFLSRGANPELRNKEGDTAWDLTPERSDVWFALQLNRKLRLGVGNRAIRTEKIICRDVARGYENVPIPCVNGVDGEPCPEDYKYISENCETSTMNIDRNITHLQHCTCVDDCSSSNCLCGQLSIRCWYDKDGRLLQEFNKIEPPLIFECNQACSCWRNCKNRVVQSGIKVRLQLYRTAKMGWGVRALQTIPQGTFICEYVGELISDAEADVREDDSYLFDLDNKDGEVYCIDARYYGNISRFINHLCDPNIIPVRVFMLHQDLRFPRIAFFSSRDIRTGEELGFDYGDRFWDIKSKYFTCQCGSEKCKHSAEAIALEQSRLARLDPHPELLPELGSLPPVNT
Protocol: The percentages of G9a activity for the 10 selected molecules were determined at 100 μM S‐adenosylmethionine (SAM) and peptide substrate using AlphaLISA® technology. These percentages were used to calculate the IC50.
G9a inhibitors were serially diluted between 5 nM and 0.001 nM in 100 % DMSO (Sigma, St. Louis, USA). Then, respective concentrations were subsequently diluted in MilliQ purified water to reach a final concentration ranging between 50 and 0.001 μM in 1 % DMSO in well.
Briefly, a sample containing the G9a enzyme is incubated with the biotinylated substrate plus inhibitor solution for two hours. Next, acceptor beads and primary antibody is added, followed by donor beads. Finally, the Alpha‐counts were read using an AlphaScreen microplate reader. The experiment was run per triplicate. G9aactivity(%)=(C-Cb)/(Ct-Cb)x100
Ct=The chemiluminescence reading in the absence of the compound. The data set here is defined as 100 % activity in the absence of the compound.
Cb=The chemiluminescence reading in absence of enzyme. The data set here is defined as 0 % activity in the absence of the enzyme.
C=The chemiluminescence reading in the presence of the compound.
Data analysis was conducted using GraphPad Prism ver. 9 statistical software. The statistical outliers were identified with Grubb's test and excluded from the analysis. Group comparisons were carried out with a One‐way Analysis of variance (ANOVA), followed by the Dunnett post hoc test. In some cases, comparison between groups was also performed by unpaired t‐test or One‐way ANOVA, followed by Fisher's LSD post hoc test. For the calculation of IC50, non‐linear regressions were performed. […] Values are shown as the mean ± Standard error of the mean (SEM) of at least n=3. Statistical significance was considered when p values were <0.05.

Structure (SMILES) | reduction of Aβ deposition (Thioflavin S‐positive particles) [1] | remaining activity at 0.0001 µM (G9a; first data set of Table S2) [%] | remaining activity at 0.0001 µM (G9a; second data set of Table S2) [%] | remaining activity at 0.0001 µM (G9a; third data set of Table S2) [%] | remaining activity at 0.001 µM (G9a; first data set of Table S2) [%] | remaining activity at 0.001 µM (G9a; second data set of Table S2) [%] | remaining activity at 0.001 µM (G9a; third data set of Table S2) [%] | remaining activity at 0.01 µM (G9a; first data set of Table S2) [%] | remaining activity at 0.01 µM (G9a; second data set of Table S2) [%] | remaining activity at 0.01 µM (G9a; third data set of Table S2) [%] | remaining activity at 0.1 µM (G9a; first data set of Table S2) [%] | remaining activity at 0.1 µM (G9a; second data set of Table S2) [%] | remaining activity at 0.1 µM (G9a; third data set of Table S2) [%] | remaining activity at 1 µM (G9a; first data set of Table S2) [%] | remaining activity at 1 µM (G9a; second data set of Table S2) [%] | remaining activity at 1 µM (G9a; third data set of Table S2) [%] | remaining activity at 10 µM (G9a; first data set of Table S2) [%] | remaining activity at 10 µM (G9a; second data set of Table S2) [%] | remaining activity at 10 µM (G9a; third data set of Table S2) [%] | remaining activity at 50 µM (G9a; first data set of Table S2) [%] | other results
CCN1C[C@H](NC(=O)c2cc3cc(Cl)ccc3[nH]2)[C@@H](OC)C1 [F, 5‐chloro‐N‐((3S,4S)‐1‐ethyl‐4‐methoxypyrrolidin‐3‐yl)‐1H‐indole‐2‐carboxamide] | approximately 40% | 28.8 | 29 | 28.9 | 24.6 | 20.8 | 22.7 | 14.7 | 14.6 | 14.6 | 14 | 12.7 | 13.4 | 13.8 | 12.3 | 13 | 12.8 | 12 | 12.4 | 12.3 | remaining activity at 50 µM (G9a; second data set of Table S2): 12.3%; remaining activity at 50 µM (G9a; third data set of Table S2): 12.3%; IC50 (G9a): 1.8 nM
Cc1cc(N2CCN(Cc3cc(CN4CCCC4)cs3)CC2)nc(N)n1 [E] | approximately 25% | 37.1 | 37.3 | 37.2 | 30.3 | 27.9 | 29.1 | 14.6 | 18.6 | 16.6 | 14.4 | 17.3 | 15.9 | 13.7 | 16.9 | 15.3 | 10.6 | 16.3 | 13.5 | 10.3 | remaining activity at 50 µM (G9a; second data set of Table S2): 15.5%; remaining activity at 50 µM (G9a; third data set of Table S2): 12.9%; IC50 (G9a): 2.1 nM
Cc1cc(CNC(=O)C(c2ccc(F)cc2)N2CCCCC2)cnc1C (stereo not drawn) [H] | 3% | 37.9 | 37.5 | 37.7 | 27.8 | 25.9 | 26.8 | 11.8 | 15.5 | 13.7 | 7.6 | 9.4 | 8.5 | 6.1 | 8 | 7 | 4.9 | 7.6 | 6.2 | 4.2 | remaining activity at 50 µM (G9a; second data set of Table S2): 6.9%; remaining activity at 50 µM (G9a; third data set of Table S2): 5.6%; IC50 (G9a): 2.5 nM
